By residual activity is commonly meant the signal under treatment as a percentage of the control signal.

Sequence of BMX (human) (P51813 whole entry, looked up): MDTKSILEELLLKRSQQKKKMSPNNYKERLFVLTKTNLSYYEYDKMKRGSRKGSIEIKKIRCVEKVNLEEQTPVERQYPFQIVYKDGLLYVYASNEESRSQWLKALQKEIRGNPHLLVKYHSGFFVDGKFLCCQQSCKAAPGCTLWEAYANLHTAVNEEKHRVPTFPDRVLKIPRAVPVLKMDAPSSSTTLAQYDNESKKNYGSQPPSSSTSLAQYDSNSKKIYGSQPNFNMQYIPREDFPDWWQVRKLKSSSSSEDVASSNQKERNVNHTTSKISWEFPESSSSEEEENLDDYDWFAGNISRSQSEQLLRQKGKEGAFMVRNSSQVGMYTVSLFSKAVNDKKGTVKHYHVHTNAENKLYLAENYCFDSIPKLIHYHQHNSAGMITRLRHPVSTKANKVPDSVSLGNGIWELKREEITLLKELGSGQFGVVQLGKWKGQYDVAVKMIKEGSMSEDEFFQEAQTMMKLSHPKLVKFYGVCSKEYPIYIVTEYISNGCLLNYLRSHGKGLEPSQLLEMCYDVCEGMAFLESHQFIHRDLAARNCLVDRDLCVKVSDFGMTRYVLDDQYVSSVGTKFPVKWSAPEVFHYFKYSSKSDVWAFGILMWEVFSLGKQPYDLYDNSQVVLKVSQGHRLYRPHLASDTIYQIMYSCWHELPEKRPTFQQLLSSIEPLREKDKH
Sequence of GRK5 (human) (P34947 whole entry, looked up): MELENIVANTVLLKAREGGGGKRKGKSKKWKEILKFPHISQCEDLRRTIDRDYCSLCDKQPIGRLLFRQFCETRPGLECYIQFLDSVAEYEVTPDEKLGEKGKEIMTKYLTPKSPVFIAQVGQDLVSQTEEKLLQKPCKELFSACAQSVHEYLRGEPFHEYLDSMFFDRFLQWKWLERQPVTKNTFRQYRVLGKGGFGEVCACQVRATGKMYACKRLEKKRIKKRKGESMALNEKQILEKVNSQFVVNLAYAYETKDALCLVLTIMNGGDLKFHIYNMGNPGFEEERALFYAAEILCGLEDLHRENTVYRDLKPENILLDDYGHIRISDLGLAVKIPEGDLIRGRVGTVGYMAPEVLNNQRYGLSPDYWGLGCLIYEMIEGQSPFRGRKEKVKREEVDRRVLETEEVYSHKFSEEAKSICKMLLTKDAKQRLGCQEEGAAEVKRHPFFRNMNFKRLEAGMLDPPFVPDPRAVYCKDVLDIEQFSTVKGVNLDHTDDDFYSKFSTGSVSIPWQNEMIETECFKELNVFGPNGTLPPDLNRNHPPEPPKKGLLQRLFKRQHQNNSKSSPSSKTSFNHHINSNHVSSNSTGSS
Sequence of MST4 (human) (Q9P289 whole entry, looked up): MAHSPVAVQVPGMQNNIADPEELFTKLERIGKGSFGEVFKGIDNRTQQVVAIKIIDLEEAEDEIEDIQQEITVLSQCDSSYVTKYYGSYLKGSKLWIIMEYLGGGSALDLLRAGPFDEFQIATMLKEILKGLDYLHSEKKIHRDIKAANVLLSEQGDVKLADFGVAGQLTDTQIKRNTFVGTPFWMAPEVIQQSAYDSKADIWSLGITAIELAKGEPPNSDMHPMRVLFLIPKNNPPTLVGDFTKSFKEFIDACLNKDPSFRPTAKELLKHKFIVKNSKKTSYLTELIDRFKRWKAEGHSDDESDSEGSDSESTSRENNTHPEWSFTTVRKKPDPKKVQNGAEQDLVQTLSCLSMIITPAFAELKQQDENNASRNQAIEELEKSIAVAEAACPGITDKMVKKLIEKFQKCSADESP

For one assay, the target named is INSRR (human) (UniProt P14616). Kind of assay: radiometric filter-binding kinase assay, Kinase HotSpot. The following applies: compound 0.5 µM; ATP 10 µM.
`CNc1cc2c(Nc3cccc(Br)c3)ncnc2cn1`: the residual activity stood at 98.2%.
On the same count and under the same terms, the value for `O=C1Nc2ccc(Cl)cc2/C1=C/c1cc(Cl)c(O)c(Cl)c1` was 100%; that for `Cc1ccc(S(=O)(=O)/C=C/C#N)cc1` was 98%.

The target in another assay is TSSK1B (human) (UniProt Q9BXA7). The description is as above. The following applies: compound 0.5 µM; ATP 10 µM.
Sequence of TSSK1B (human) (Q9BXA7 whole entry, looked up): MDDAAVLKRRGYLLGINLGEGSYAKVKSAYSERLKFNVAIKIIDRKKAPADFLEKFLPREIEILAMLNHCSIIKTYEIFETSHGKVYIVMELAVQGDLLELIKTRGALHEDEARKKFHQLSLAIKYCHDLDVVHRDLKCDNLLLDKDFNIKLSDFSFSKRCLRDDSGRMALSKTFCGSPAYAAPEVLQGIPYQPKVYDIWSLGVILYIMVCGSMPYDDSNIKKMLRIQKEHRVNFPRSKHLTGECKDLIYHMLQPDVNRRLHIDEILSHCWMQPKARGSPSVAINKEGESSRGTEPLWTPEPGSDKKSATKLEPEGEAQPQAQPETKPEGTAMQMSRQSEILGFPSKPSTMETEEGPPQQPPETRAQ
Consider `CNc1cc2c(Nc3cccc(Br)c3)ncnc2cn1`, for which the residual activity was found to be 60.2%.
The same measure, in the same setting: the value for `O=C1Nc2ccc(Cl)cc2/C1=C/c1cc(Cl)c(O)c(Cl)c1` was 88.2%; that for `Cc1ccc(S(=O)(=O)/C=C/C#N)cc1` was 97.4%.

A further assay has as its target LTK (human) (UniProt P29376). Described as above. Particulars: compound 0.5 µM; ATP 10 µM.
For `CNc1cc2c(Nc3cccc(Br)c3)ncnc2cn1`, the residual activity stood at 76.2%.
Still for that read-out and setting: the result for `O=C1Nc2ccc(Cl)cc2/C1=C/c1cc(Cl)c(O)c(Cl)c1` reads 36.9%.
`Cc1ccc(S(=O)(=O)/C=C/C#N)cc1`: the residual activity was 114%.

A further assay concerns the target MST4 (human) (UniProt Q9P289). Described as above. The following applies: compound 0.5 µM; ATP 10 µM.
Turning to `CNc1cc2c(Nc3cccc(Br)c3)ncnc2cn1`, the residual activity was determined as 109%.
As for `O=C1Nc2ccc(Cl)cc2/C1=C/c1cc(Cl)c(O)c(Cl)c1`, the residual activity turned out to be 101%.
Same read-out and setting: the value for `Cc1ccc(S(=O)(=O)/C=C/C#N)cc1` was 90.7%.

Another assay concerns the target CDK1 CCNB1 (human) (UniProt P06493+P14635). The description is as above. Particulars: compound 0.5 µM; ATP 10 µM.
`CNc1cc2c(Nc3cccc(Br)c3)ncnc2cn1`: the residual activity was 104%.
Still for that read-out and setting: the result for `O=C1Nc2ccc(Cl)cc2/C1=C/c1cc(Cl)c(O)c(Cl)c1` reads 96.3%; that for `Cc1ccc(S(=O)(=O)/C=C/C#N)cc1`, 92.3%.

Another assay deals with MAP3K9 (human) (UniProt P80192). The description is as above. Particulars: compound 0.5 µM; ATP 10 µM.
Take `CNc1cc2c(Nc3cccc(Br)c3)ncnc2cn1`: the residual activity was 94.4%.
On the same count and under the same terms, the result for `O=C1Nc2ccc(Cl)cc2/C1=C/c1cc(Cl)c(O)c(Cl)c1` reads 102%.
On the same count and under the same terms, the value for `Cc1ccc(S(=O)(=O)/C=C/C#N)cc1` was 96.9%.

The target in a further assay is SRPK1 (human) (UniProt Q96SB4). Described as above. Particulars: compound 0.5 µM; ATP 10 µM.
Sequence of SRPK1 (human) (Q96SB4 whole entry, looked up): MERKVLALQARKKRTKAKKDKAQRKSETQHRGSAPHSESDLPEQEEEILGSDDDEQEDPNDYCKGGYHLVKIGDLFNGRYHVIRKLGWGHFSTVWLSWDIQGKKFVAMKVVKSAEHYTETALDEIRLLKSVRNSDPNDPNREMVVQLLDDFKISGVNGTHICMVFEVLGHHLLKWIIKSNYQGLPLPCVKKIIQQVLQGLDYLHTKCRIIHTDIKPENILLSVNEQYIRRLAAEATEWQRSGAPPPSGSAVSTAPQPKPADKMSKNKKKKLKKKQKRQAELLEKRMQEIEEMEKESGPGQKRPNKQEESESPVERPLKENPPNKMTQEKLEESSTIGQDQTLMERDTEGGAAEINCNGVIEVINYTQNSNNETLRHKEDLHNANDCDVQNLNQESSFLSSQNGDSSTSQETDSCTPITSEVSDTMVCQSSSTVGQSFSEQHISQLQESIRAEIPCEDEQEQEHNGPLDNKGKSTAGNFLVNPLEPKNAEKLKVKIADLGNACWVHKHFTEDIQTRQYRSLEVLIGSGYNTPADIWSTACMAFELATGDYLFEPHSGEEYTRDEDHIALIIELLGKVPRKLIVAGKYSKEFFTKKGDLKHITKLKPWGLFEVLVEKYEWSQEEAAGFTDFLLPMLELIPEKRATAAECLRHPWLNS
`CNc1cc2c(Nc3cccc(Br)c3)ncnc2cn1`: the residual activity came out at 90.7%.
On the same count and under the same terms, the value for `O=C1Nc2ccc(Cl)cc2/C1=C/c1cc(Cl)c(O)c(Cl)c1` was 106%; that for `Cc1ccc(S(=O)(=O)/C=C/C#N)cc1` was 99.7%.

A further assay has as its target DYRK1A (human) (UniProt Q13627). The assay is described as above. The following applies: compound 0.5 µM; ATP 10 µM.
For `CNc1cc2c(Nc3cccc(Br)c3)ncnc2cn1`, the residual activity is 95.6%.
The same measure, in the same setting: the result for `O=C1Nc2ccc(Cl)cc2/C1=C/c1cc(Cl)c(O)c(Cl)c1` reads 95.6%; that for `Cc1ccc(S(=O)(=O)/C=C/C#N)cc1`, 107%.

A further assay deals with LRRK2 (human) (UniProt Q5S007). Described as above. Particulars: compound 0.5 µM; ATP 10 µM.
As to `CNc1cc2c(Nc3cccc(Br)c3)ncnc2cn1`, the residual activity was 67%.
For the molecule `O=C1Nc2ccc(Cl)cc2/C1=C/c1cc(Cl)c(O)c(Cl)c1`, the residual activity was 11%.
For `Cc1ccc(S(=O)(=O)/C=C/C#N)cc1`, the residual activity amounted to 115%.

The target of a further assay is EPHA1 (human) (UniProt P21709). Described as above. The following applies: compound 0.5 µM; ATP 10 µM.
As to `CNc1cc2c(Nc3cccc(Br)c3)ncnc2cn1`, the residual activity was 103%.
On to `O=C1Nc2ccc(Cl)cc2/C1=C/c1cc(Cl)c(O)c(Cl)c1`, for which the residual activity amounted to 88.9%.
In the case of `Cc1ccc(S(=O)(=O)/C=C/C#N)cc1`, the residual activity was 93.2%.

The target of another assay is TAOK3 (human) (UniProt Q9H2K8). Described as above. Particulars: compound 0.5 µM; ATP 10 µM.
Sequence of TAOK3 (human) (Q9H2K8 whole entry, looked up): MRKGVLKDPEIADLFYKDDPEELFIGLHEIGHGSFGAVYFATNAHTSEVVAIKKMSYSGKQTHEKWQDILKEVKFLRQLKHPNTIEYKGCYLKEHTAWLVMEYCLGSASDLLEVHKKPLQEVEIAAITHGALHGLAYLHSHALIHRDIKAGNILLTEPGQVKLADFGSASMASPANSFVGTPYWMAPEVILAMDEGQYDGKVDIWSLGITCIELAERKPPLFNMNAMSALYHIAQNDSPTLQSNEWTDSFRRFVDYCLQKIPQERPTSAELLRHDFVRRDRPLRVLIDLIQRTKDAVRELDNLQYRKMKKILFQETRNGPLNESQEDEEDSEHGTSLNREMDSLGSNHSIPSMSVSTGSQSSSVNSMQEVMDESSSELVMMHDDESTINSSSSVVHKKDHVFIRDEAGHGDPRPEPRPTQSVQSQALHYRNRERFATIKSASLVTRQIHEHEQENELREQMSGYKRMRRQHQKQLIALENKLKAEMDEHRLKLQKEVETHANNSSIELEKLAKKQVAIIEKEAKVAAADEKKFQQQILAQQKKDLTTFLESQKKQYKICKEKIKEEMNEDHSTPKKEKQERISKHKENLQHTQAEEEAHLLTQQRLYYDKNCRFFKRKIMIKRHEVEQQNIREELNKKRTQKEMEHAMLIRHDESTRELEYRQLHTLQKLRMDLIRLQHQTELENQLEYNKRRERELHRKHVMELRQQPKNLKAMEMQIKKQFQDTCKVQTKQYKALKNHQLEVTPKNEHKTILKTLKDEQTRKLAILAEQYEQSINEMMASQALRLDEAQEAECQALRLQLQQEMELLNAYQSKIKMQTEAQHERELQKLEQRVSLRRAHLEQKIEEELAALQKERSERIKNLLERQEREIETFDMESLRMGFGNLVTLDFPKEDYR
Turning to `CNc1cc2c(Nc3cccc(Br)c3)ncnc2cn1`, the residual activity was 94%.
The same measure, in the same setting: the result for `O=C1Nc2ccc(Cl)cc2/C1=C/c1cc(Cl)c(O)c(Cl)c1` reads 50.6%; that for `Cc1ccc(S(=O)(=O)/C=C/C#N)cc1`, 101%.

Another assay deals with RAF1 (human) (UniProt P04049). The description is as above. Particulars: compound 0.5 µM; ATP 10 µM.
For the molecule `CNc1cc2c(Nc3cccc(Br)c3)ncnc2cn1`, the residual activity amounted to 87.8%.
Take `O=C1Nc2ccc(Cl)cc2/C1=C/c1cc(Cl)c(O)c(Cl)c1`: the residual activity was 6.93%.
Same read-out and setting: the result for `Cc1ccc(S(=O)(=O)/C=C/C#N)cc1` reads 104%.

For another assay, the target named is CDK3 CCNE1 (human) (UniProt Q00526+P24864). The description is as above. Particulars: compound 0.5 µM; ATP 10 µM.
Take `CNc1cc2c(Nc3cccc(Br)c3)ncnc2cn1`: the residual activity is 80.2%.
As to `O=C1Nc2ccc(Cl)cc2/C1=C/c1cc(Cl)c(O)c(Cl)c1`, the residual activity was 85.4%.
Still for that read-out and setting: the value for `Cc1ccc(S(=O)(=O)/C=C/C#N)cc1` was 99.7%.

For a further assay, the target named is PAK6 (human) (UniProt Q9NQU5). The description is as above. The following applies: compound 0.5 µM; ATP 10 µM.
Turning to `CNc1cc2c(Nc3cccc(Br)c3)ncnc2cn1`, the residual activity was determined as 96.6%.
In the case of `O=C1Nc2ccc(Cl)cc2/C1=C/c1cc(Cl)c(O)c(Cl)c1`, the residual activity is 97%.
The same measure, in the same setting: the value for `Cc1ccc(S(=O)(=O)/C=C/C#N)cc1` was 107%.

The next assay concerns the target GRK5 (human) (UniProt P34947). The assay is described as above. The following applies: compound 0.5 µM; ATP 10 µM.
For `CNc1cc2c(Nc3cccc(Br)c3)ncnc2cn1`, the residual activity came to 120%.
On the same count and under the same terms, the result for `O=C1Nc2ccc(Cl)cc2/C1=C/c1cc(Cl)c(O)c(Cl)c1` reads 95.8%; that for `Cc1ccc(S(=O)(=O)/C=C/C#N)cc1`, 105%.

The next assay deals with FES (human) (UniProt P07332). The assay is described as above. The following applies: compound 0.5 µM; ATP 10 µM.
Sequence of FES (human) (P07332 whole entry, looked up): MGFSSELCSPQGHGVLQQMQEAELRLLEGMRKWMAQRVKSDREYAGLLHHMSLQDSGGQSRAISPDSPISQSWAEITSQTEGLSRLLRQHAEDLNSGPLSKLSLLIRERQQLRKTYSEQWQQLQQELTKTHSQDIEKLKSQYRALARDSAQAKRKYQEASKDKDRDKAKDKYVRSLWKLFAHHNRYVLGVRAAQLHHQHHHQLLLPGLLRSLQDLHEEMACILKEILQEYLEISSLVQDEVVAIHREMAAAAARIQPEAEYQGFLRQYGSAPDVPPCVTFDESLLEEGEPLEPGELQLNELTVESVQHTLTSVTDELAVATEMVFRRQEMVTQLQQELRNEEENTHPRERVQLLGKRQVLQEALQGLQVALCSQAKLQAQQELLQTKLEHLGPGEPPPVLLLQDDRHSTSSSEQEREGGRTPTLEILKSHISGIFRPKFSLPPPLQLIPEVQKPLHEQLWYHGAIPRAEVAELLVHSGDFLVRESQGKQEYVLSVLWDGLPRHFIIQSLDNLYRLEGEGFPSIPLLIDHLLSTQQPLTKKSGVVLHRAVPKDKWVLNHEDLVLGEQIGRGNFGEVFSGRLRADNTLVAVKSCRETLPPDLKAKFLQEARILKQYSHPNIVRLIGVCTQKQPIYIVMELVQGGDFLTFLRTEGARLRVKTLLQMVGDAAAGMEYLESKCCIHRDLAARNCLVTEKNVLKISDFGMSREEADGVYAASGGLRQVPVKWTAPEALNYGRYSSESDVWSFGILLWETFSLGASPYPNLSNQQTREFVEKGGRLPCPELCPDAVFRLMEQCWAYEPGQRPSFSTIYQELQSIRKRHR
For `CNc1cc2c(Nc3cccc(Br)c3)ncnc2cn1`, the residual activity was determined as 96.9%.
Same read-out and setting: the result for `O=C1Nc2ccc(Cl)cc2/C1=C/c1cc(Cl)c(O)c(Cl)c1` reads 93.7%; that for `Cc1ccc(S(=O)(=O)/C=C/C#N)cc1`, 100%.

A further assay has as its target FLT1 (human) (UniProt P17948). The description is as above. Particulars: compound 0.5 µM; ATP 10 µM.
Regarding `CNc1cc2c(Nc3cccc(Br)c3)ncnc2cn1`, the residual activity is 83.5%.
`O=C1Nc2ccc(Cl)cc2/C1=C/c1cc(Cl)c(O)c(Cl)c1`: the residual activity worked out at 85%.
Regarding `Cc1ccc(S(=O)(=O)/C=C/C#N)cc1`, the residual activity was 92.8%.

The next assay concerns the target NEK4 (human) (UniProt P51957). Described as above. The following applies: compound 0.5 µM; ATP 10 µM.
Regarding `CNc1cc2c(Nc3cccc(Br)c3)ncnc2cn1`, the residual activity was 94.9%.
Same read-out and setting: the value for `O=C1Nc2ccc(Cl)cc2/C1=C/c1cc(Cl)c(O)c(Cl)c1` was 88.2%; that for `Cc1ccc(S(=O)(=O)/C=C/C#N)cc1` was 94.3%.

Another assay has as its target BMX (human) (UniProt P51813). The assay is described as above. The following applies: compound 0.5 µM; ATP 10 µM.
Consider `CNc1cc2c(Nc3cccc(Br)c3)ncnc2cn1`, for which the residual activity is 93.9%.
For the molecule `O=C1Nc2ccc(Cl)cc2/C1=C/c1cc(Cl)c(O)c(Cl)c1`, the residual activity stood at 94.8%.
Still for that read-out and setting: the result for `Cc1ccc(S(=O)(=O)/C=C/C#N)cc1` reads 105%.

In a further assay the target is MAP3K5 (human) (UniProt Q99683). Described as above. The following applies: compound 0.5 µM; ATP 10 µM.
Consider `CNc1cc2c(Nc3cccc(Br)c3)ncnc2cn1`, for which the residual activity amounted to 94.6%.
Still for that read-out and setting: the result for `O=C1Nc2ccc(Cl)cc2/C1=C/c1cc(Cl)c(O)c(Cl)c1` reads 106%.
Same read-out and setting: the result for `Cc1ccc(S(=O)(=O)/C=C/C#N)cc1` reads 100%.

For another assay, the target named is IGF1R (human) (UniProt P08069). The assay is described as above. The following applies: compound 0.5 µM; ATP 10 µM.
With `CNc1cc2c(Nc3cccc(Br)c3)ncnc2cn1`, the residual activity is 115%.
Take `O=C1Nc2ccc(Cl)cc2/C1=C/c1cc(Cl)c(O)c(Cl)c1`: the residual activity was 98.3%.
Same read-out and setting: the result for `Cc1ccc(S(=O)(=O)/C=C/C#N)cc1` reads 93.5%.

For the origin of these results see the kinase profiling compilation of Christmann-Franck et al. (2016).
